According to patent US11679107B2 (Eisai R&D Management Co., Ltd., priority 2018, dated 2023):
Like-named read-outs stand apart in the source and are kept apart here.

How the values were obtained:
[1] = system: Ad2 variant pre-mRNAs spliced in HeLa S3 nuclear extracts; assay: In vitro splicing assay (IVS), RT-qPCR of spliced product; format: biochemical; details: for IC50: geometric mean; for Ratio Ad2.1/2.2: ratio of IVS IC50 Ad2.1 to Ad2.2
Summary of the method: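 Read-out is one-step TaqMan RT-qPCR of spliced Ad2 mRNA with Ftz as reference, normalized to DMSO and fit by non-linear regression. Reactions held HeLa S3 nuclear extract, 2 ng Ad2-derived pre-mRNA and test compound, with 15 min preincubation. Splicing was started with ATP-containing activation buffer and run 90 min at 30 °C.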

SF3b complexes = molecular target: T1, SF3b complexes (Homo sapiens, UniProt O75533+Q7RTV0); assay: Scintillation proximity assay (SPA) with [3H]-labelled pladienolide probe; format: binding; details: SF3B1 (WT); geometric mean; read-out: SPA-ATS GMean IC50 (nM) SF3B1 (WT)
T1 construct: endogenous in cells; host or cells: Nuclear extracts; A HeLa S3 extract preparation is described for the in vitro splicing assay
Summary of the method: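 SF3b complexes captured from nuclear extracts on anti-SF3B1 antibody SPA beads; test compounds pre-incubated 30 min before 2.5 nM [3H]-pladienolide probe added, then 30 min incubation. Bound probe read by scintillation; values from non-linear regression of concentration–response curves.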

[2] = system: NCI-H1568 cells (high MCL1); assay: Cell proliferation and viability, CellTiter-Glo, 72 hours; format: cell-based; details: for GI50: geometric mean
Summary of the method: (§1)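 RPMI-1640/10% FBS (Panc: + insulin, FBS 15%); 11-pt half-log dose, ~10 μM-100 pM, 0.1% DMSO; 37° C, 5% CO2; ATP luminescence read; % inhibition vs T0 and vehicle, −100% cidal to 100% uninhibited growth.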

[3] = system: Panc 05.04 cells (SF3b K700E mutant); assay: as above; format: cell-based; details: for GI50: geometric mean
Summary of the method: as §1

[4] = Ad2.1 pre-mRNA substrate, read-out: qPCR-IVS-ATS GMean IC50 (nM) Ad2.1
[5] = Ad2.2 pre-mRNA substrate, read-out: qPCR-IVS-ATS GMean IC50 (nM) Ad2.2
[6] = 72 h, NCIH1568.1, -100% = cidal, 0% = static, 100% = uninhibited growth
[7] = NCI-H1568, read-out: CTGlo-ATS GMean GI50 (nM) 72 h NCIH1568.1, 72 h, NCIH1568.1
[8] = 72 h, PANC0504.1, -100% = cidal, 0% = static, 100% = uninhibited growth
[9] = Panc 05.04, read-out: CTGlo-ATS GMean GI50 (nM) 72 h PANC0504.1, 72 h, PANC0504.1
[10] = NCI-H1568, read-out: CTGlo-ATS GMean GI50 (nM) 72 h NCIH1568.1, NCIH1568.1 cells, 72 h
[11] = NCIH1568.1 cells, 72 h, −100% cidal, 0% static, 100% maximal growth
[12] = PANC0504.1 cells, 72 h, −100% cidal, 0% static, 100% maximal growth
[13] = Panc 05.04, read-out: CTGlo-ATS GMean GI50 (nM) 72 h PANC0504.1, PANC0504.1 cells, 72 h
[14] = NCI-H1568, 72 h, read-out: CTGlo-ATS GMean GI50 (nM) 72 h NCIH1568.1, 72 h, NCIH1568.1
[15] = Panc 05.04, 72 h, read-out: CTGlo-ATS GMean GI50 (nM) 72 h PANC0504.1, 72 h, PANC0504.1
[16] = NCI-H1568, 72 h, read-out: CTGlo-ATS GMean GI50 (nM) 72 h NCIH1568.1, NCIH1568.1 cells, 72 h
[17] = Panc 05.04, 72 h, read-out: CTGlo-ATS GMean GI50 (nM) 72 h PANC0504.1, PANC0504.1 cells, 72 h

Row | Structure (SMILES) | IC50 [1, 4] [nM] | IC50 [1, 5] [nM] | Ratio Ad2.1/2.2 [1] | IC50 (SF3b complexes) [nM] | CTGlo-ATS Mean MinResponse % 72 h NCIH1568.1 [2, 6] [%] | GI50 [2, 7] [nM] | CTGlo-ATS Mean MinResponse % 72 h PANC0504.1 [3, 8] [%] | GI50 [3, 9] [nM] | GI50 [2, 10] [nM] | CTGlo-ATS Mean MinResponse % 72 h NCIH1568.1 [2, 11] [%] | CTGlo-ATS Mean MinResponse % 72 h PANC0504.1 [3, 12] [%] | GI50 [3, 13] [nM] | GI50 [2, 14] [nM] | GI50 [3, 15] [nM] | GI50 [2, 16] [nM] | GI50 [3, 17] [nM]
1 | C/C(=C\c1ccc(C)c(N2CCCC2=O)c1)[C@H]1OC(=O)C[C@H](O)CC[C@H](C)[C@@H](OC(=O)N2CCN(C)CC2)/C=C/[C@@H]1C [Compound 207, [(2S,3S,4E,6R,7S,10R)-10-hydroxy-3,7-dimethyl-2-[(E)-1-[4-methyl-3-(2-oxopyrrolidin-1-yl)phenyl]prop-1-en-2-yl]-12-oxo-1-oxacyclododec-4-en-6-yl] 4-methylpiperazine-1-carboxylate] | 22.5 | 15.5 | 1.451 | 3.46 | −63.380 | 16.9 | −92.266 | 15.1 | – | – | – | – | – | – | – | –
2 | C/C(=C\c1cc(F)cc(N2CCOCC2)c1)[C@H]1OC(=O)C[C@H](O)CC[C@H](C)[C@@H](OC(=O)N2CCCC(N(C)C)C2)/C=C/[C@@H]1C (stereo partly shown) [Compound 40] | 55.9 | 28.1 | – | 3.98 | – | – | – | – | 13.3 | −72.259 | −82.881 | 7.75 | – | – | – | –
3 | C/C(=C\c1cc(F)cc(N2CCOCC2)c1)[C@H]1OC(=O)C[C@H](O)CC[C@H](C)[C@@H](OC(=O)N(C)C2CCN(C)CC2)/C=C/[C@@H]1C [Compound 22] | 876 | 38.8 | – | 5.76 | – | – | – | – | 12.8 | −69.453 | −84.195 | 11.6 | – | – | – | –
4 | C/C(=C\c1cccc(COC(=O)N2CC[C@@H](O)C2)c1)[C@H]1OC(=O)C[C@H](O)CC[C@H](C)[C@@H](OC(=O)N2CCN(C)CC2)/C=C/[C@@H]1C [Compound 254, [(2S,3S,4E,6R,7S,10R)-10-hydroxy-2-[(E)-1-[3-[[(3R)-3-hydroxypyrrolidine-1-carbonyl]oxymethyl]phenyl]prop-1-en-2-yl]-3,7-dimethyl-12-oxo-1-oxacyclododec-4-en-6-yl] 4-methylpiperazine-1-carboxylate] | 22000 | 52.2 | 422.058 | 5.12 | −41.424 | – | −77.065 | – | – | – | – | – | 23.7 | 29 | – | –
5 | C/C(=C\c1cc(F)cc(N2CCOCC2)c1)[C@H]1OC(=O)C[C@H](O)CC[C@H](C)[C@@H](OC(=O)N2CCN(C)[C@H](C)C2)/C=C/[C@@H]1C [Compound 23] | 369 | 28.3 | – | 4.23 | – | – | – | – | 10.8 | −64.974 | −90.781 | 10.4 | – | – | – | –
6 | C/C(=C\c1cc(F)cc(N2CCOCC2)c1)[C@H]1OC(=O)C[C@H](O)CC[C@H](C)[C@@H](OC(=O)N2CCC(N3CCCCC3)CC2)/C=C/[C@@H]1C [Compound 262, [(2S,3S,4E,6R,7S,10R)-2-[(E)-1-(3-fluoro-5-morpholin-4-ylphenyl)prop-1-en-2-yl]-10-hydroxy-3,7-dimethyl-12-oxo-1-oxacyclododec-4-en-6-yl] 4-piperidin-1-ylpiperidine-1-carboxylate] | 4100 | 51.6 | 79.467 | 5.66 | −65.862 | – | −91.709 | – | – | – | – | – | 41.7 | 29.3 | – | –
7 | CN[C@@H]1CCN(c2cccc(/C=C(\C)[C@H]3OC(=O)C[C@H](O)CC[C@H](C)[C@@H](OC(=O)N4CCN(C)CC4)/C=C/[C@@H]3C)c2)C1 [Compound 9] | 107 | 27 | – | 14.9 | – | – | – | – | 116 | −83.308 | −87.085 | 63.9 | – | – | – | –
8 | C/C(=C\c1cc(F)c2nnn(CC3CC3)c2c1)[C@H]1OC(=O)C[C@H](O)CC[C@H](C)[C@@H](OC(=O)N2CCN(C)CC2)/C=C/[C@@H]1C [Compound 137] | 27.6 | 12.1 | – | 1.21 | – | – | – | – | 1.17 | −81.149 | −86.584 | 1.61 | – | – | – | –
9 | CN[C@@H]1CCN(c2cc(F)cc(/C=C(\C)[C@H]3OC(=O)C[C@H](O)CC[C@H](C)[C@@H](OC(=O)N4CCN(C)CC4)/C=C/[C@@H]3C)c2)C1 [Compound 45] | 36.3 | 18.3 | – | 15.9 | – | – | – | – | 18.9 | −98.435 | −92.006 | 35.7 | – | – | – | –
10 | C/C(=C\c1cc(F)cc(N2CCN(S(=O)(=O)c3ccc4ccn(C)c4c3)CC2)c1)[C@H]1OC(=O)C[C@H](O)CC[C@H](C)[C@@H](OC(=O)N2CCN(C)CC2)/C=C/[C@@H]1C [Compound 115] | 335 | 233 | – | 144 | – | – | – | – | 88.9 | −93.625 | −97.417 | 85.2 | – | – | – | –
11 | C/C(=C\c1cc(F)cc(N2CCOCC2)c1)[C@H]1OC(=O)C[C@H](O)CC[C@H](C)[C@@H](OC(=O)N2CCN3CCCC3C2)/C=C/[C@@H]1C (stereo partly shown) [Compound 82] | 68.6 | 28.2 | – | 3.79 | – | – | – | – | 12.2 | −60.656 | −88.044 | 8.74 | – | – | – | –
12 | C/C(=C\c1cc(F)cc(N2CCO[C@H](CO)C2)c1)[C@H]1OC(=O)C[C@H](O)CC[C@H](C)[C@@H](OC(=O)N2CCN(C)CC2)/C=C/[C@@H]1C [Compound 76] | 21.5 | 17.7 | – | 4.2 | – | – | – | – | – | −77.948 | −90.504 | – | – | – | 3.02 | 5.17
13 | C/C(=C\c1cccc(NS(=O)(=O)C2CC2)c1)[C@H]1OC(=O)C[C@H](O)CC[C@H](C)[C@@H](OC(=O)N2CCN(C)CC2)/C=C/[C@@H]1C [Compound 216, [(2S,3S,4E,6R,7S,10R)-2-[(E)-1-[3-(cyclopropylsulfonylamino)phenyl]prop-1-en-2-yl]-10-hydroxy-3,7-dimethyl-12-oxo-1-oxacyclododec-4-en-6-yl] 4-methylpiperazine-1-carboxylate] | 11100 | 35.7 | 309.648 | 3.32 | −32.014 | 47.2 | −85.005 | 29 | – | – | – | – | – | – | – | –
14 | C/C(=C\c1cc(F)cc(N2CC[C@@H](O)C2)c1)[C@H]1OC(=O)C[C@H](O)CC[C@H](C)[C@@H](OC(=O)N2CCN(C)CC2)/C=C/[C@@H]1C [Compound 34] | 56.5 | 26.9 | – | 3.18 | – | – | – | – | – | −55.438 | −85.656 | – | – | – | 9.46 | 14
15 | C/C(=C\c1cc(F)cc(N2CCN(C(=O)c3cnco3)CC2)c1)[C@H]1OC(=O)C[C@H](O)CC[C@H](C)[C@@H](OC(=O)N2CCN(C)CC2)/C=C/[C@@H]1C [Compound 123] | 16.5 | 13.1 | – | 1.7 | – | – | – | – | 2.26 | −86.056 | −71.328 | 2.75 | – | – | – | –
